In patent US20110207789A1, “METHODS RELATED TO CASEIN KINASE II (CK2) INHIBITORS AND THE USE OF PURINOSOME-DISRUPTING CK2 INHIBITORS FOR ANTI-CANCER THERAPY AGENTS” (priority 2010, published 2011):
Like-named read-outs stand apart in the source and are kept apart here. Numbered stars: 1 amine (or outer) side, 2 acyl side, 3 side chain; on linkers, the order of the positions; unused ones are H or OH. Bridge positions count the residues as written; N and C are the ends. Square brackets hold non-standard residues; d marks the D form. Peptide text beside a SMILES is read from it. Trp(2-yl) = O=C([C@H](Cc1c([*:3])[nH]c2ccccc12)N[*:1])[*:2]; Leu(4R-OH,5-OH) = C[C@](O)(CO)C[C@H](N)C(=O)O; cisHyp = O=C(O)[C@@H]1C[C@H](O)CN1

Legend:
Format in all cases: cell-based
[1] = tested on: HeLa cells; assay: Label-free Epic RWG biosensor DMR assay in HeLa cells cultured in regular serum medium; conditions: for Effect of pretreatment on the sequential TBB response after DMAT / Effect of pretreatment on the sequential DMAT response after TBB: order modulator (10 μM), each step about 1 hr; for Effect of pretreatment on the sequential TBB response after DMAT / Effect of pretreatment on the sequential DMAT response after TBB / Effect of pretreatment on the TBB DMR response / Sensitivity of the DMR signal to cellular status: DMAT 25 μM; for Effect of pretreatment on the sequential TBB response after DMAT / Effect of pretreatment on the sequential DMAT response after TBB / Effect of pretreatment on the DMAT DMR response: TBB 50 μM; for Effect of pretreatment on the DMAT DMR response / Effect of pretreatment on the TBB DMR response: pretreatment about 1 hr, modulators 10 μM; for Effect of pretreatment on the DMAT DMR response: then DMAT 25 μM; for Effect of pretreatment on the TBB DMR response: then TBB 50 μM; for Type of DMR signal triggered by the compound alone: HeLa cells, regular serum medium, high confluency; for EC50: Homo sapiens, synchronized HeLa cells, 25,000 cells per well; for Classification as purinosome promoting or disrupting CK2 inhibitor: from DMR signals in HeLa cells; for Effect on purinosome complexes in quiescent cells: high seeding density; for Effect on purinosome complexes in proliferating cells: low seeding density; for Sensitivity of the DMR signal to cellular status: three seeding densities (5,000, 10,000, 20,000 cells per well), TBB 100 μM
From the text: HeLa cells were obtained from American Type Cell Culture (Manassas, Va.). This cervical cancer cell line was maintained in standard serum medium (i.e., minimum essential medium (MEM) (Invitrogen) supplemented with 10% fetal bovine serum (FBS) and 1% Penicillin/streptomycin). To investigate the effects of purine depletion on the purinosome formation and dissociation, HeLa cells were maintained for at least two passages in “purine-depleted medium” prior cell assays. […] FBS was dialyzed against 0.9% NaCl at 4° C. for ˜2 days using a 25 kDa MWCO dialysis membrane to remove purines. This process completely removes the purines normally present in FBS.
Cells were typically grown using ˜1 to 2×10^4 cells per well at passage 3 to 15 suspended in 50 μl of the corresponding culture medium in the biosensor microplate, and were cultured at 37° C. under air/5% CO2 for ˜1 day. The confluency for all cells at the time of assays was ˜100%.
Epic® wavelength interrogation system (Corning Inc., Corning, N.Y.) was used for whole cell sensing. This system consists of a temperature-control unit, an optical detection unit, and an on-board liquid handling unit with robotics. The detection unit is centered on integrated fiber optics, and enables kinetic measures of cellular responses with a time interval of ˜15sec. The compound solutions were introduced by using the on-board liquid handling unit (i.e., pippetting).
(§1) For biosensor cellular assays, compound solutions were made by diluting the stored concentrated solutions with the HBSS (1× Hanks balanced salt solution, plus 20 mM Hepes, pH 7.1), and transferred into a 384 well polypropylene compound storage plate to prepare a compound source plate. Two compound source plates were made separately when a two-step assay was performed. In parallel, the cells were washed twice with the HBSS and maintained in 30 μl of the HBSS to prepare a cell assay plate. Both the cell assay plate and the compound source plate(s) were then incubated in the hotel of the reader system. After incubation the baseline wavelengths of all biosensors in the cell assay microplate were recorded and normalized to zero. Afterwards, a 2 to 10 min continuous recording was carried out to establish a baseline, and to ensure that the cells reached a steady state. Cellular responses were then triggered by transferring 10 μl of the compound solutions into the cell assay plate using the on-board liquid handler.
All studies were carried out at a controlled temperature (28° C.). At least two independent sets of experiments, each with at least three replicates, were performed.

[2] = tested on: purinosome complexes; assay: Fluorescence imaging of purinosome complexes, transient transfection of fluorescent purine synthesis enzymes; conditions: purine depleted medium cultured cells, low confluency (~50%); data not shown
From the text: The inconsistency in the action of TBB between fluorescence imaging and label-free cellular assays can be due to that confocal fluorescence imaging is largely single cell-based, while label-free assay is largely population cells-based, as well as different confluencies used in both assays.

[3] = tested on: HeLa cells; assay: Label-free Epic DMR assay in HeLa cells cultured in purine depleted medium; conditions: TBB 100 μM, DMAT 25 μM
From the text: HeLa cells were obtained from American Type Cell Culture (Manassas, Va.). This cervical cancer cell line was maintained in standard serum medium (i.e., minimum essential medium (MEM) (Invitrogen) supplemented with 10% fetal bovine serum (FBS) and 1% Penicillin/streptomycin). To investigate the effects of purine depletion on the purinosome formation and dissociation, HeLa cells were maintained for at least two passages in “purine-depleted medium” prior cell assays. The purine depleted medium is a medium consisting of Roswell Park Memorial Institute 1640 (RPMI 1640) supplemented with dialyzed 5% FBS […]. FBS was dialyzed against 0.9% NaCl at 4° C. for ˜2 days using a 25 kDa MWCO dialysis membrane to remove purines. This process completely removes the purines normally present in FBS. […]
For biosensor cellular assays, compound solutions were made by diluting the stored concentrated solutions with the HBSS (1× Hanks balanced salt solution, plus 20 mM Hepes, pH 7.1), and transferred into a 384 well polypropylene compound storage plate to prepare a compound source plate. […] Both the cell assay plate and the compound source plate(s) were then incubated in the hotel of the reader system. After incubation the baseline wavelengths of all biosensors in the cell assay microplate were recorded and normalized to zero. […]

[4] = tested on: HT29 cells; assay: TBB-mediated DMR signal in HT29 cells; conditions: 10 μM TBB, highly confluent cells
Description: as §1, with “All other cell lines were obtained from American Type Cell Culture (Manassas, VA) and were cultured under corresponding standard culture conditions, according to the protocol recommended by the supplier. Cells were typically grown using ˜1 to 2×10^4 cells per well at passage 3 to 15 suspended in 50 μl of the corresponding culture medium in the biosensor microplate, and were cultured at 37° C. under air/5% CO2 for ˜1 day. The confluency for all cells at the time of assays was ˜100%. For” for “For”, “Cellular responses were then triggered by transferring 10 μl of the compound solutions into the cell assay plate using the on-board liquid handler.” left out

Row | SMILES | Effect of pretreatment on the sequential TBB response after DMAT [1] | Effect of pretreatment on the DMAT DMR response [1] | Effect of pretreatment on the TBB DMR response [1] | Type of DMR signal triggered by the compound alone [1] | Classification as purinosome promoting or disrupting CK2 inhibitor [1] | further results
1 | COC(=O)Nc1nc2ccc(C(=O)c3cccs3)cc2[nH]1 [nocodazole] | slightly suppressed | potentiated | reversed |  |  | Effect of pretreatment on the sequential DMAT response after TBB [1]: suppression
2 | Cc1cc(C(C)(C)C)c(O)c(C)c1CC1=NCCN1 [oxymetazoline] | potentiation | attenuated |  | Gi-like DMR signal |  | 
3 | CN(C)c1nc2c(Br)c(Br)c(Br)c(Br)c2[nH]1 [DMAT, 2-Dimethylamino-4,5,6,7-tetrabromo-1H-benzimidazole] |  |  | N-DMR similar to the buffer treated cells | P-DMR | purinosome promoting CK2 inhibitors | Effect on purinosome complexes by fluorescence imaging [2]: formation of purinosome complexes; Type of DMR signal in purine depleted culture [3]: P-DMR; EC50 ([1]; dependent on the time points after stimulation (6 min and 50 min), read-out: EC50 of dose-dependent P-DMR response): 5 to 22 µM; Effect on purinosome complexes in quiescent cells [1]: promotes the further formation of purinosome complexes; Effect on purinosome complexes in proliferating cells [1]: promote the formation of purinosomes; Sensitivity of the DMR signal to cellular status [1]: insensitive to cellular status
4 | O=c1cc(-c2ccc(O)cc2)oc2cc(O)cc(O)c12 [apigenin] |  |  |  | DMR signals similar to the DMAT response | purinosome promoting CK2 inhibitors | 
5 | CC(C)(C)NCC(O)c1cc(O)cc(O)c1 (stereo not drawn) [terbutaline] | little or no impact | little or no impact |  | Gs-like DMR signal |  | 
6 | CC[C@]1(O)C[C@@H]2CN(CCc3c([nH]c4ccccc34)[C@@](C(=O)OC)(c3cc4c(cc3OC)N(C)[C@H]3[C@@](O)(C(=O)OC)[C@H](OC(C)=O)[C@]5(CC)C=CCN6CC[C@]43[C@@H]65)C2)C1 [vinblastine] |  |  | reversed |  |  | Effect of pretreatment on the sequential DMAT response after TBB [1]: suppression
7 | C[C@@H]1NC(=O)[C@H](C[C@@](C)(O)CO)NC(=O)[C@@H]2Cc3c([nH]c4ccccc34)SC[C@H](NC(=O)[C@@H]([C@H](C)O)NC1=O)C(=O)N1C[C@@H](O)C[C@H]1C(=O)N[C@@H](C)C(=O)N2 [phalloidin] (cyclo(A[dT]C[cisHyp]A[Trp(2-yl)][Leu(4R-OH,5-OH)]); thioether 3-6) |  | little impact | little impact |  |  | 
8 | O=C(O)/C=C/c1cc(Br)c(Br)c(Br)c1Br [TBCA, Tetrabromocinnamic Acid] |  | desensitized | slightly potentiated | DMR signals similar to the DMAT response | purinosome promoting CK2 inhibitors | 
9 | Brc1c(Br)c(Br)c2[nH]nnc2c1Br [TBB, 4,5,6,7-tetrabromobenzotriazole] |  | slightly potentiated |  | N-DMR | pruinosome disrupting CK2 inhibitors | Effect on purinosome complexes by fluorescence imaging [2]: disassembly of purinsome complexes; TBB DMR signal in HT29 cells [4]: an initial P-DMR followed by a N-DMR; Type of DMR signal in purine depleted culture [3]: P-DMR; EC50 ([1]; 50 min, amplitude 50 min after stimulation, read-out: EC50 of dose-dependent N-DMR signal): 25 µM; Effect on purinosome complexes in quiescent cells [1]: causes the disassembly of basal purinosome complexes; Effect on purinosome complexes in proliferating cells [1]: promote the formation of purinosomes; Sensitivity of the DMR signal to cellular status [1]: dramatically sensitive to cellular status
10 | Clc1cccc(Cl)c1N=C1NCCN1 [clonidine] |  |  | dose-dependently potentiated |  |  | 
11 | C/C1=C/C(=O)O[C@@H]2C[C@@H](CC[C@H](C)/C=C\C=C\CC1)O[C@@](O)([C@@H]1CSC(=O)N1)C2 [latrunculin A] | altered | attenuated | completely inhibiting the early DMR event |  |  | Effect of pretreatment on the sequential DMAT response after TBB [1]: smaller DMAT response
12 | OC[C@H]1O[C@@H](n2cnc3cc(Cl)c(Cl)cc32)[C@H](O)[C@@H]1O [DRB, 5,6-Dichlorobenzimidazole 1-(β-D-ribofuranoside] |  | desensitized | slightly potentiated | DMR signals similar to the DMAT response | purinosome promoting CK2 inhibitors | 
